Assays:
[1] = tested on: GABAA α-6 site; assay: GABAA alpha 6 site competitive binding (3H-Ro 15-4513); conditions: Conc. 1.0E−4 M, bovine hippocampus
Excerpt: (§1) The binding profile of exemplary inventive compounds to neurotransmitter receptor sites is set forth below in Table 1. The characterization of the receptors, isolation of the membrane, and enzyme assay have been described in detail previously (see, e.g., Cole et al., Life Sci., 35, 1755 (1984), Lawrence et al., J. Neurochem., 45(3), 798 (1985), Sweetnam et al., Mol. Pharmacology, 29, 299 (1986), Zarkovsky et al., Neuropharmacology, 26 (7A), 737 (1987), Li et al., Eur. J. Pharmacology, 413, 63 (2001), and Markela et al., Mol. Pharmacology, 52, 380 (1997)).
(§2) The melatonin binding site on GABAA was defined using a series of competitive binding assays. Frozen bovine hippocampus was thawed and homogenized in 40 volumes of ice-cold 0.32 M sucrose. The suspension was centrifuged at 1000×g for 10 minutes at 4° C. The pellet was washed twice in assay buffer and reacted with radioactive ligand in presence or absence of melatonin at 10^−4 M final concentration. The amount of radioactivity remained on the Whatman filter following filtration of the reaction mix and two washes with assay buffer was determined using a liquid scintillation counter. Inhibition of radioactive ligand binding by melatonin represents the competitive binding of melatonin to the same site as the radioactive ligand. GABAA agonist site, GABAA α-1 site, GABAA α-5 site, GABAA α-6 site, and GABAA Cl channel were assayed using ^3H-GABA, ^3H-flunitrazepam, ^3H-RY80, ^3H-Ro 15-4513, and ^3H-TBOB.

[2] = tested on: GABAA α-1 site; assay: GABAA alpha 1 site competitive binding (3H-flunitrazepam); conditions: Conc. 1.0E−4 M, bovine hippocampus
Excerpt: as §1, §2

[3] = molecular target: T1, GABAA α-5 site (Bos taurus, UniProt P22300+Q08E50); assay: GABAA alpha 5 site competitive binding (3H-RY80); conditions: bovine hippocampus
T1 construct: Frozen bovine hippocampus was thawed and homogenized in 40 volumes of ice-cold 0.32 M sucrose; from tissue; host or cells: bovine hippocampus membranes (washed pellet)
T1 sequence (Q08E50 32-462): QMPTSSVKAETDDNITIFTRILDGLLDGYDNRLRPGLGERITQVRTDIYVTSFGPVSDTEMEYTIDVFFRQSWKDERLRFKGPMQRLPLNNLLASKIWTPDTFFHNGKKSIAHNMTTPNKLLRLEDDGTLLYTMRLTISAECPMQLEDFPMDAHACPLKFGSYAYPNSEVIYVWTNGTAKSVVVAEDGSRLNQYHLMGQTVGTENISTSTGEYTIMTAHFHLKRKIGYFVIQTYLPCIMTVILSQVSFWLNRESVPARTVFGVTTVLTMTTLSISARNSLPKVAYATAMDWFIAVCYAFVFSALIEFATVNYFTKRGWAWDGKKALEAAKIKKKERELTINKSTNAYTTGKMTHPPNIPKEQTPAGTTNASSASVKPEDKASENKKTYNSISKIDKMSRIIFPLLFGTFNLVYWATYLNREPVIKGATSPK
T1 sequence (P22300 40-475): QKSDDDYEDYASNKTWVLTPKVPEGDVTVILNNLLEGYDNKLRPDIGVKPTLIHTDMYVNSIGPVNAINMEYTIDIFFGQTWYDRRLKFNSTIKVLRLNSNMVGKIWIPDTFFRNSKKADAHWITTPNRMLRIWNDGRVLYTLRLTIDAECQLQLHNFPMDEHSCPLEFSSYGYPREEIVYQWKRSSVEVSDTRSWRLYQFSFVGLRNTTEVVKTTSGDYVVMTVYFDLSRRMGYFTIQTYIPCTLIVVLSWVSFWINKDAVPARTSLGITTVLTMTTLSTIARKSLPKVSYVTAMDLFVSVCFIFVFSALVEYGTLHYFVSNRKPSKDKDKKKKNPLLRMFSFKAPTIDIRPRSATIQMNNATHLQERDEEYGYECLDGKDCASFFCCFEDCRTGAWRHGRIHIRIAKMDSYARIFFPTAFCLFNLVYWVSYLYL
Description: Frozen bovine hippocampus was thawed and homogenized in 40 volumes of ice-cold 0.32 M sucrose. The suspension was centrifuged at 1000×g for 10 minutes at 4° C. […] The amount of radioactivity remained on the Whatman filter following filtration of the reaction mix and two washes with assay buffer was determined using a liquid scintillation counter. Inhibition of radioactive ligand binding by melatonin represents the competitive binding of melatonin to the same site as the radioactive ligand.

[4] = tested on: GABAA Cl channel; assay: GABAA Cl channel, TBOB site competitive binding (3H-TBOB), single concentration; conditions: Conc. 1.0E−4 M, bovine hippocampus
Excerpt: as §1, §2

[5] = tested on: GABAA α-1 site; assay: GABAA alpha 1 site competitive binding (3H-flunitrazepam); conditions: Conc. 1.0E−3 M, bovine hippocampus
[6] = tested on: GABAA α-6 site; assay: GABAA alpha 6 site competitive binding (3H-Ro 15-4513); conditions: Conc. 1.0E−3 M, bovine hippocampus
[7] = tested on: GABAA agonist site; assay: GABAA agonist site competitive binding (3H-GABA); conditions: Conc. 1.0E−3 M, bovine hippocampus
Excerpt: as §1, §2

[8] = tested on: GABAA Cl channel; assay: GABAA Cl channel, TBOB site competitive binding (3H-TBOB), single concentration; conditions: Conc. 1.0E−3 M, bovine hippocampus

SMILES | Specific binding, GABAA Alpha 6 site (inhibition of radioactive ligand binding) [1] | Specific binding, GABAA Alpha 1 site (inhibition of radioactive ligand binding) [2] | Specific binding, GABAA Alpha 5 site (inhibition of radioactive ligand binding) ([3]; Conc. 1.0E−4 M) | Specific binding, GABAA Ion Channels Cl−, TBOB site (inhibition of radioactive ligand binding) [4] | Specific binding, GABAA Alpha 1 site (inhibition of radioactive ligand binding) [5] | Specific binding, GABAA Alpha 6 site (inhibition of radioactive ligand binding) [6] | Specific binding, GABAA Agonist site (inhibition of radioactive ligand binding) [7] | Specific binding, GABAA Alpha 5 site (inhibition of radioactive ligand binding) ([3]; Conc. 1.0E−3 M) | Specific binding, GABAA Ion Channels Cl−, TBOB site (inhibition of radioactive ligand binding) [8]
COc1ccc(-c2[nH]c3ccc(OC)cc3c2CCNC(C)=O)cc1 | 6.68% | −8.16% | 7.09% | 108.82% | – | – | – | – | –
COc1cc2c(CCNC(C)=O)c[nH]c2cc1Cl [6-Chloromelatonin] | – | – | – | – | 12.49% | −7.74% | −13.74% | 13.95% | 43.63%
